Literature values as cited in patent US11202800B1, “Methods for treating emotional cognitive disconnect” (priority 2013, dated 2021).

How the values were obtained:
[1] = tested on: Ca^2+ plus calmodulin dependent phosphorylation of synapsin I; conditions: in rats
[2] = tested on: Ca^2+ plus calmodulin-stimulated reactions; conditions: in rats

## [Mg+2] [Mg^2+, magnesium]
[1]
  Mg^2+ concentration above which Ca^2+ plus calmodulin dependent phosphorylation of synapsin I is progressively inhibited: above 5 mM
[2]
  Mg^2+ concentration range in which Ca^2+ plus calmodulin-stimulated reactions are maximally active: 30 to 50 mM
